Measurements published in US10590086B2, “Pharmaceutical compound” (IOmet Pharma Ltd., priority 2014, dated 2020).

What was measured:
[1] = molecular target: T1, TDO (Homo sapiens, UniProt P48775); test: hTDO biochemical coupled assay; settings: 330 μM L-tryptophan, read-out: hTDO biochemical assay pIC50 (converted)
[2] = molecular target: T2, IDO (Homo sapiens, UniProt P14902); test: hIDO biochemical coupled assay; settings: 45 μM L-tryptophan, read-out: hIDO biochemical assay pIC50 (converted)
T2 sequence (P14902 whole entry): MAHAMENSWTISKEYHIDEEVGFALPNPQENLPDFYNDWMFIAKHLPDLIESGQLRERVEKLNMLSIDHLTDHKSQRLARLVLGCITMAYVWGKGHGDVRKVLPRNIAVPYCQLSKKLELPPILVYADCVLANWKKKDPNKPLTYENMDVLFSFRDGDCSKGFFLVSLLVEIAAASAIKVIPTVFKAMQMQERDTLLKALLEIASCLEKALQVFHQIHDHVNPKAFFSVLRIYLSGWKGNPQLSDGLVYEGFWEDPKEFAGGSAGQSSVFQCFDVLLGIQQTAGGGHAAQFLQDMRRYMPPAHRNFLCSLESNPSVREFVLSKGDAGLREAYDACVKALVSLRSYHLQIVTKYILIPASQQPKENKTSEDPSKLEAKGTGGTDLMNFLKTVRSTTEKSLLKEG

[3] = molecular target: T1, TDO; test: A172 kynurenine cell-based assay; design: This assay utilised cancer cells which expressed either TDO or IDO; endogenous in cells; host or cells: A172 (human glioblastoma); settings: A172 human glioblastoma cells, 48 hours, read-out: A172 Kynurenine cell based assay pIC50 (converted)
Procedure, shortened: (§1)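 Readout: […] of cell supernatant 5 min after Erhlich's reagent, reporting kynurenine. Cells: A172 (TDO) or SKOV3 + 500 ng/ml IFN-γ (IDO), 48 h, 37° C, ± compound. Medium: phenol red-free RPMI, 10% FCS, 2 mM L-glutamine, 500 μM L-tryptophan.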

[4] = molecular target: T2, IDO; test: SKOV3 kynurenine cell-based assay (IDO induced by IFN-γ); design: IDO expression was induced in the SKOV3 cells by the addition of 500 ng/ml IFN-γ; endogenous in cells; host or cells: SKOV3 (human ovarian adenocarcinoma), induced with IFN-γ; settings: 48 hours, read-out: SKOV3 Kynurenine cell based assay pIC50 (converted)
Procedure, shortened: as §1

[5] = SKOV3 human ovarian adenocarcinoma cells, 500 ng/ml IFN-γ, 500 μM L-tryptophan

T1 sequence (P48775 whole entry): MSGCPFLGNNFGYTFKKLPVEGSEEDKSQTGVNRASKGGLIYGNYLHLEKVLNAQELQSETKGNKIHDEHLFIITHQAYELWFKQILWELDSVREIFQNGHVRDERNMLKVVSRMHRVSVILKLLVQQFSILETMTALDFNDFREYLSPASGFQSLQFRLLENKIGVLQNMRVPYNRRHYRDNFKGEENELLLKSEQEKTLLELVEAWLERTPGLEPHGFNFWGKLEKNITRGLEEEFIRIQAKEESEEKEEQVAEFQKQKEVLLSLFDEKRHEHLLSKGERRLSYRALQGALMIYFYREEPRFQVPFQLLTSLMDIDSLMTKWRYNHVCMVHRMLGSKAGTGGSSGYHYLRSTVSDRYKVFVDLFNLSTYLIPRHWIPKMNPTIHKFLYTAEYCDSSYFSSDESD

SMILES | IC50 ([1]; 17 minutes, room temperature) [µM] | IC50 ([2]; 17 minutes, room temperature) [µM] | IC50 ([3]; 500 μM L-tryptophan) [µM] | IC50 [4, 5] [µM] | IC50 [1] [µM] | IC50 [2] [µM] | IC50 [3] [µM] | IC50 ([4]; SKOV3 cells, IDO induced by 500 ng/ml IFN-γ) [µM]
CC(=O)N1CCC(c2cccc3[nH]ncc23)CC1 [Compound 14] | 32.4 to 100 | > 100 | 3.24 to 31.6 | 32.4 to 100 |  |  |  | 
Clc1cc(N2CCC(c3ccccc3)CC2)c2cn[nH]c2c1 [Compound 183] | < 3.16 | 3.24 to 31.6 | < 3.16 | 3.24 to 31.6 |  |  |  | 
Cn1cc2c(n1)CN(c1cc(Cl)cc3[nH]ncc13)CC2 [Compound 433] | < 3.16 | > 100 | 3.24 to 31.6 | > 100 |  |  |  | 
Cc1cc(S(C)(=O)=O)ccc1-c1cc(Cl)cc2[nH]ncc12 [Compound 268] | < 3.16 | 32.4 to 100 | < 3.16 | 3.24 to 31.6 |  |  |  | 
CN(c1cc(N2CCN(S(C)(=O)=O)C(C)(C)C2)c2cn[nH]c2c1)S(C)(=O)=O [Compound 310] | > 100 | > 100 | 32.4 to 100 | > 100 |  |  |  | 
CS(=O)(=O)NC1CCN(c2cc(Cl)cc3[nH]ncc23)CC1 [Compound 97] | < 3.16 | 3.24 to 31.6 | < 3.16 | 32.4 to 100 |  |  |  | 
CC(=O)N1CCN(c2cc(Cl)cc3c(N)noc23)CC1(C)C [Compound 305] | 32.4 to 100 | > 100 | 3.24 to 31.6 | 32.4 to 100 |  |  |  | 
CC1(C)CN(c2cc(Br)cc3[nH]ncc23)CCN1S(C)(=O)=O [Compound 91] | < 3.16 | < 3.16 | < 3.16 | < 3.16 |  |  |  | 
CC(=O)N(C)C1CCN(c2cc(Cl)cc3[nH]ncc23)CC1 [Compound 251] | < 3.16 | < 3.16 | < 3.16 | 3.24 to 31.6 |  |  |  | 
CC1(C)CN(c2cc(C(F)F)cc3[nH]ncc23)CCN1S(C)(=O)=O [Compound 370] | < 3.16 | < 3.16 | < 3.16 | < 3.16 |  |  |  | 
CC(=O)N1CCC(c2cc(Cl)cc3[nH]ncc23)CC1(C)C (stereo not drawn) [Compound 400] | < 3.16 | < 3.16 | < 3.16 | < 3.16 |  |  |  | 
OC(CC1CCOCC1)c1cc(Cl)cc2[nH]ncc12 (stereo not drawn) [Compound 289] | < 3.16 | 32.4 to 100 | < 3.16 | 32.4 to 100 |  |  |  | 
Clc1cc(N2CCC(N3CCOCC3)CC2)c2cn[nH]c2c1 [Compound 451] | < 3.16 | 32.4 to 100 | < 3.16 | > 100 |  |  |  | 
CC1(C)CN(c2cc(Cl)cc3c(N)n[nH]c23)CCN1S(C)(=O)=O [Compound 321] | > 100 | > 100 | 3.24 to 31.6 | 3.24 to 31.6 |  |  |  | 
O=C1Nc2ccccc2C12CCN(c1cc(Cl)cc3[nH]ncc13)CC2 [Compound 371] | < 3.16 | > 100 | 3.24 to 31.6 | 3.24 to 31.6 |  |  |  | 
CNC(=O)C1(C)CCN(c2cc(Cl)cc3[nH]ncc23)CC1 [Compound 382] | < 3.16 | > 100 | < 3.16 | 3.24 to 31.6 |  |  |  | 
Clc1cc(N2CCCCC2)c2cn[nH]c2c1 [Compound 308] | 3.24 to 31.6 | 32.4 to 100 | < 3.16 | > 100 |  |  |  | 
O=C1NC2(CCN(c3cc(Cl)cc4[nH]ncc34)CC2)C(=O)N1CC1CC1 [Compound 390] | < 3.16 | < 3.16 | < 3.16 | < 3.16 |  |  |  | 

SMILES | IC50 ([1]; 17 minutes, room temperature) [µM] | IC50 ([2]; 17 minutes, room temperature) [µM] | IC50 ([3]; 500 μM L-tryptophan) [µM] | IC50 [4, 5] [µM] | IC50 [1] [µM] | IC50 [2] [µM] | IC50 [3] [µM] | IC50 ([4]; SKOV3 cells, IDO induced by 500 ng/ml IFN-γ) [µM]
COC(=O)CN1CCN(c2cc(Cl)cc3[nH]ncc23)CC1(C)C [Compound 414] | < 3.16 | 32.4 to 100 | < 3.16 | > 100 |  |  |  | 
CN(C)C(=O)c1ccc(-c2cc(Cl)cc3[nH]ncc23)cc1 [Compound 255] | 3.24 to 31.6 | > 100 | < 3.16 | 3.24 to 31.6 |  |  |  | 
Cc1nc2c(n1C)CCN(c1cc(Cl)cc3[nH]ncc13)C2 [Compound 252] | < 3.16 | > 100 | < 3.16 | 32.4 to 100 |  |  |  | 
CC(C)(C)CC(=O)Nc1cccc2[nH]ncc12 [Compound 4, N-(1H-indazol-4-yl)-3,3-dimethylbutanamide] | < 3.16 | > 100 | 32.4 to 100 | > 100 |  |  |  | 
OC1(c2cc(Cl)cc3[nH]ncc23)CCCCC1 [Compound 273, 1-(6-chloro-1H-indazol-4-yl)cyclohexanol] | < 3.16 | 3.24 to 31.6 | < 3.16 | 3.24 to 31.6 | 0.0851 | 11.7 | 0.0135 | 9.55
NC(=O)C1CCCN(c2cc(Cl)cc3[nH]ncc23)C1 (stereo not drawn) [Compound 199] | < 3.16 | > 100 | < 3.16 | 32.4 to 100 |  |  |  | 
O=C1NC2(CCN(c3cc(Br)cc4[nH]ncc34)CC2)C(=O)N1Cc1ccccc1 [Compound 406] | < 3.16 | < 3.16 | < 3.16 | < 3.16 |  |  |  | 
O=C1CCCN1C1CCN(c2cc(Cl)cc3[nH]ncc23)CC1 [Compound 372] | < 3.16 | > 100 | < 3.16 | 3.24 to 31.6 |  |  |  | 
CS(=O)(=O)c1ccc(-c2cc(Cl)cc3[nH]ncc23)c(Cl)c1 [Compound 384] | < 3.16 | 3.24 to 31.6 | < 3.16 | 3.24 to 31.6 |  |  |  | 
CC(C)C(O)c1cc(Cl)cc2[nH]ncc12 (stereo not drawn) [Compound 260] | < 3.16 | 3.24 to 31.6 | < 3.16 | 3.24 to 31.6 |  |  |  | 
CC1(C)CN(c2cc(Cl)cc3[nH]ncc23)CCC1NS(C)(=O)=O (stereo not drawn) [Compound 336] | < 3.16 | 3.24 to 31.6 | < 3.16 | 3.24 to 31.6 |  |  |  | 
Cc1c2c(nn1C)CCN(c1cc(Cl)cc3[nH]ncc13)C2 [Compound 378] | < 3.16 | > 100 | < 3.16 | 3.24 to 31.6 |  |  |  | 
O=C1NC(=O)C(C2CCN(c3cc(Cl)cc4[nH]ncc34)CC2)N1 (stereo not drawn) [Compound 443] | < 3.16 | > 100 | < 3.16 | > 100 |  |  |  | 
Clc1cc(N2CCN(c3cccnc3)CC2)c2cn[nH]c2c1 [Compound 375] | < 3.16 | > 100 | < 3.16 | 3.24 to 31.6 |  |  |  | 
CNC(=O)c1ccc(C2CCN(c3cc(Cl)cc4[nH]ncc34)CC2)cc1 [Compound 440] | < 3.16 | 3.24 to 31.6 | < 3.16 | 3.24 to 31.6 |  |  |  | 
CC1(C)CCC(O)(c2cc(Cl)cc3[nH]ncc23)CC1 [Compound 427] | 3.24 to 31.6 | > 100 | < 3.16 | > 100 |  |  |  | 
CN1C(=O)NC(C2CCN(c3cc(Cl)cc4[nH]ncc34)CC2)C1=O (stereo not drawn) [Compound 444] | < 3.16 | > 100 | < 3.16 | > 100 |  |  |  | 
